What was measured:
[1] = molecular target: Norepinephrine transporter (Rattus norvegicus, UniProt Q9WTR4)
Description: Inhibition of norepinephrine reuptake in rat whole brains minus cerebellar

Mus musculus [2] = species: Mus musculus; format: functional; conditions: at 0.63 mg/kg
Description: Reversal of scopolamine-induced memory impairment in mice at 0.63 mg/Kg administered subcutaneously.

in vivo [3] = conditions: rat, ip
Description: Toxicity evaluated in rats after intraperitoneal administration.

Mus musculus [4] = species: Mus musculus; format: functional; conditions: at 5 mg/kg
Description: Reversal of scopolamine-induced memory impairment in mice at 5 mg/Kg administered subcutaneously.

Mus musculus [5] = species: Mus musculus; format: functional; conditions: at […]
Description: Reversal of scopolamine-induced memory impairment in mice at 0.31 mg/Kg administered subcutaneously.

[6] = molecular target: Sodium-dependent dopamine transporter (Rattus norvegicus, UniProt P23977); format: functional
Sequence of Sodium-dependent dopamine transporter (P23977 whole entry): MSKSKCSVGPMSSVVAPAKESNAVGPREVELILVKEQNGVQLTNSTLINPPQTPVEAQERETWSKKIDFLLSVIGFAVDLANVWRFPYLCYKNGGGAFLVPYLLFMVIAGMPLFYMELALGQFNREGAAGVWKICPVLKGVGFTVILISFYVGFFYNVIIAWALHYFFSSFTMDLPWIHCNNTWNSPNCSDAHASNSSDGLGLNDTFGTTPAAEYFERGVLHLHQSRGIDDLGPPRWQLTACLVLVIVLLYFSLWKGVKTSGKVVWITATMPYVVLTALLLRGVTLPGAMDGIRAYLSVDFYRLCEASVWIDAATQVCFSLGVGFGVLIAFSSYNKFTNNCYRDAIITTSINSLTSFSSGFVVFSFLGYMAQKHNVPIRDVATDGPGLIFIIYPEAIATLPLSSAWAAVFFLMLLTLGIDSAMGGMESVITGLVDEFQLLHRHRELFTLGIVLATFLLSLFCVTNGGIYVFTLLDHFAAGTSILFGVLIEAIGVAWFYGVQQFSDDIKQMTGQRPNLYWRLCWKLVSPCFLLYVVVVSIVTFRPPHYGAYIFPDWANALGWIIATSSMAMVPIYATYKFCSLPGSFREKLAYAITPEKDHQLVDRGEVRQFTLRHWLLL
Description: Inhibition of the reuptake of dopamine in rat corpora striata.

Acetylcholinesterase [7] = molecular target: T1, Acetylcholinesterase (Rattus norvegicus, UniProt P37136)
T1 sequence (P37136 whole entry): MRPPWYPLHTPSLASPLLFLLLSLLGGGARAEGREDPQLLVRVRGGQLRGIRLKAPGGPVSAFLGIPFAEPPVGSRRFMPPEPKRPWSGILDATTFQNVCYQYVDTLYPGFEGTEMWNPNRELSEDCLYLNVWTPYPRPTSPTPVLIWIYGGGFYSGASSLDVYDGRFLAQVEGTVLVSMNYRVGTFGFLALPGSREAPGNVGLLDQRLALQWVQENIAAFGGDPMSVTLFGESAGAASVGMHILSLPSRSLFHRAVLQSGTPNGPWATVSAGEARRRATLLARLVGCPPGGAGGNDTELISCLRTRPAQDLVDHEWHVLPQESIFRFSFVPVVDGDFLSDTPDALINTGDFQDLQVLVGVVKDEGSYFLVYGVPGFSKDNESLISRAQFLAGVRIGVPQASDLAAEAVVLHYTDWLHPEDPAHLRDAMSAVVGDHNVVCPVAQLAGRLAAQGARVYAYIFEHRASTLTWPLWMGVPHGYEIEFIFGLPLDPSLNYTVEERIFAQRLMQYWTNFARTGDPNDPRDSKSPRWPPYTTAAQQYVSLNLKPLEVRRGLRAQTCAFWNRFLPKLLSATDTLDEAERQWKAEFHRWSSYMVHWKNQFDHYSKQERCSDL
Description: In vitro inhibition against acetylcholinesterase in rat striata.

Mus musculus [8] = assay: Intra peritoneal administration for the reversal of tetrabenazine ptosis in mice; format: functional
[9] = molecular target: Sodium-dependent serotonin transporter (Rattus norvegicus, UniProt P31652); format: functional
Sequence of Sodium-dependent serotonin transporter (P31652 whole entry): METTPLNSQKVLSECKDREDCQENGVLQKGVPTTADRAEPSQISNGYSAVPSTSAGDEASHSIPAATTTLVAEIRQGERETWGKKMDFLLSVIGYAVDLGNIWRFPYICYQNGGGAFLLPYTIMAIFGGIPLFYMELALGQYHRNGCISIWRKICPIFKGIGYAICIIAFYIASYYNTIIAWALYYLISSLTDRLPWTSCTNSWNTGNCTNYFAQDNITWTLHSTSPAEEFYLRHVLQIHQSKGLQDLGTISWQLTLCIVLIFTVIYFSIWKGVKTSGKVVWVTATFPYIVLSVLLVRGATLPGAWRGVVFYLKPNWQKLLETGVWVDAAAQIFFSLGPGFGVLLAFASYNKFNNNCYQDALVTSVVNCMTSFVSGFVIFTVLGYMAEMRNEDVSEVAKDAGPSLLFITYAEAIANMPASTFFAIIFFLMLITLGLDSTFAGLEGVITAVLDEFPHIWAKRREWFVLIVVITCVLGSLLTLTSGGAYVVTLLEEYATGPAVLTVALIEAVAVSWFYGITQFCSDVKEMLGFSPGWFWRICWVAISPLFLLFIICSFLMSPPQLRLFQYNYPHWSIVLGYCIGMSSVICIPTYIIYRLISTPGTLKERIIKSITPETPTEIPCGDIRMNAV
Description: Inhibition of serotonin reuptake in rat whole brains without cerebellum

Mus musculus [10] = species: Mus musculus; format: functional; conditions: at 1.25 mg/kg
Description: Reversal of scopolamine-induced memory impairment in mice at 1.25 mg/Kg administered subcutaneously.

Mus musculus [11] = species: Mus musculus; format: functional; conditions: at 2.5 mg/kg
Description: Reversal of scopolamine-induced memory impairment in mice at 2.5 mg/Kg administered subcutaneously.

Mus musculus [12] = species: Mus musculus; format: functional; conditions: at 0.16 mg/kg
Description: Reversal of scopolamine-induced memory impairment in mice at 0.16 mg/Kg administered subcutaneously.

[13] = Toxicity was evaluated in rats, after intraperitoneal administration;Value ranges from(40-80); format: organism-based; conditions: rat, in vivo, ip
[14] = Toxicity was evaluated in rats, after intraperitoneal administration;Value ranges from 50-60; format: organism-based; conditions: rat, in vivo, ip
[15] = Toxicity was evaluated in mice, after intraperitoneal administration;Value ranges from(83-107); format: organism-based; conditions: mouse, in vivo, ip
Acetylcholinesterase [16] = molecular target: T1, Acetylcholinesterase; assay: In vitro inhibition against acetylcholinesterase in rat striatal; format: functional
Mus musculus [17] = species: Mus musculus; assay: Compound was tested in nbm model of mice, for the dose at which reversal of retention deficit in lesioned animals and enhanced learning in sham-pperated animals was observed; format: functional
[18] = Toxicity was evaluated in rats, after intraperitoneal administration;Value ranges from (40-80).; format: organism-based; conditions: rat, in vivo, ip
in vivo [19] = conditions: mouse, ip
[20] = Toxicity was evaluated in rats, after intraperitoneal administration;Value ranges from (40-80); format: organism-based; conditions: rat, in vivo, ip
Rattus norvegicus = species: Rattus norvegicus; assay: cells
Description: Compound was evaluated for inhibition of the reuptake of norepinephrine

Sequence of Norepinephrine transporter (Q9WTR4 whole entry): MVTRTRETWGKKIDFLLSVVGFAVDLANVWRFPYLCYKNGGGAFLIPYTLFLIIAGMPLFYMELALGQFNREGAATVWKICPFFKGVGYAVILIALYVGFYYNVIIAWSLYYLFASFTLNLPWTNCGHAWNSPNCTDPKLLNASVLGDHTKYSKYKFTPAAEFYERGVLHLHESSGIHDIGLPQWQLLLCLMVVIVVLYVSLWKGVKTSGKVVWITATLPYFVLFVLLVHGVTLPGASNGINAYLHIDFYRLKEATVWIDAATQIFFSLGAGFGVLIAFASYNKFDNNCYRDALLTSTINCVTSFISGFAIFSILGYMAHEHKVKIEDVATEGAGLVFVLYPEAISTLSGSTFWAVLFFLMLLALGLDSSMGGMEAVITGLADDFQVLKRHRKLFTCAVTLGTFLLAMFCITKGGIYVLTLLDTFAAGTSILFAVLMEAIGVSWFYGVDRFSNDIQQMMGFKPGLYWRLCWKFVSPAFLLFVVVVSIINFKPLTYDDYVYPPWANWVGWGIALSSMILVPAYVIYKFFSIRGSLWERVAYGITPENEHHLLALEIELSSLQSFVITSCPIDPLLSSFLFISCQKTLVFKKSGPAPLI

With `OC1CCCc2nc3ccccc3c(NCc3ccccc3C(F)(F)F)c21` (centres undefined) the IC50 [1] was 0.081 µM, the Animals (Mus musculus [2]) was 13% and the LD50 (in vivo [3]) was 80 mg/kg. The Animals (Mus musculus [4]) was 33%, the Animals (Mus musculus [5]) was 23% and the IC50 [6] was 0.95 µM. It also gave an IC50 (Acetylcholinesterase [7]) of 13.3 µM, an ED50 (Mus musculus [8]) of 16.2 mg/kg and an IC50 [9] of 3.8 µM. The Animals (Mus musculus [10]) was 20%, the Animals (Mus musculus [11]) was 13% and the Animals (Mus musculus [12]) was 38%.

With `Cc1ccccc1CNc1c2c(nc3ccccc13)CCCC2O` (centres undefined) the IC50 [1] was 0.053 µM, the Animals (Mus musculus [2]) was 7% and the Animals (Mus musculus [4]) was 0%. For the same compound, the Animals (Mus musculus [5]) was 7%, the IC50 [6] was 0.25 µM and the IC50 (Acetylcholinesterase [7]) was 5.89 µM. The ED50 (Mus musculus [8]) was 25.3 mg/kg, the LD50 [13] was less than 80 mg/kg and the IC50 [9] was 9 µM. For the same compound, the Animals (Mus musculus [10]) was 13%, the Animals (Mus musculus [11]) was 7% and the Animals (Mus musculus [12]) was 0%.

Compound `OC1CCCc2nc3ccccc3c(NCc3ccccc3)c21` (centres undefined) [SURONACRINE] has an IC50 [1] of 0.07 µM, an Animals (Mus musculus [2]) of 20% and an LD50 [14] of less than 60 mg/kg. It also gave an LD50 [15] of 94 mg/kg, an Animals (Mus musculus [4]) of 36% and an IC50 (Acetylcholinesterase [16]) of 32.2 µM. It also gave an Animals (Mus musculus [5]) of 50%, an IC50 [6] of 0.3 µM and a Dose (Mus musculus [17]) of 20 mg/kg. The ED50 (Mus musculus [8]) was 27.4 mg/kg, the IC50 [9] was 11 µM and the Animals (Mus musculus [10]) was 13%. It also gave an Animals (Mus musculus [11]) of 21% and an Animals (Mus musculus [12]) of 27%.

With `Nc1c2c(nc3ccccc13)CCCC2O` (centres undefined) [VELNACRINE] the IC50 [1] was greater than 20 µM, the Animals (Mus musculus [2]) was 33% and the LD50 [18] was less than 80 mg/kg. The LD50 (in vivo [19]) was 162 mg/kg, the Animals (Mus musculus [4]) was 33% and the Animals (Mus musculus [5]) was 20%. It also gave an IC50 [6] greater than 20 µM, an IC50 (Acetylcholinesterase [7]) of 4 µM and an IC50 [9] greater than 20 µM. The Animals (Mus musculus [10]) was 20%, the Animals (Mus musculus [11]) was 31% and the Animals (Mus musculus [12]) was 14%.

Compound `CNc1c2c(nc3ccccc13)CCCC2O` (centres undefined) has an IC50 [1] greater than 20 µM, an Animals (Mus musculus [2]) of 0% and an LD50 [20] of less than 80 mg/kg. The Animals (Mus musculus [4]) was 7%, the Animals (Mus musculus [5]) was 7% and the IC50 [6] was greater than 20 µM. It also gave an IC50 (Acetylcholinesterase [7]) of 1.76 µM, an IC50 [9] greater than 20 µM and an Animals (Mus musculus [10]) of 7%. The Animals (Mus musculus [11]) was 7% and the Animals (Mus musculus [12]) was 0%.

Compound `Nc1c2c(nc3ccc(Cl)cc13)CCCC2O` (centres undefined) has an LD50 (in vivo [3]) of 80 mg/kg, an IC50 (Rattus norvegicus) greater than 10 µM and an IC50 (Acetylcholinesterase [7]) of 24.7 µM.

Work on `CCCNc1c2c(nc3ccccc13)CCCC2O` (centres undefined) yielded an IC50 (Rattus norvegicus) greater than 20 µM, an IC50 [6] greater than 20 µM and an IC50 (Acetylcholinesterase [7]) of 13.3 µM. For the same compound, the LD50 [13] was less than 80 mg/kg and the IC50 [9] was greater than 20 µM.
